Results taken from patent US6864068B2, “Antifungal proteins” (Syngenta Limited, priority 1995, dated 2005).

System: F culmorum
Test: Specific antifungal activity of Rs-AFP2 isoforms in SMF− and SMF+ media
Type: cell-based
Set-up: IC50 SMF− / IC50 SMF+: unit not given here
Details: for RELATIVE SPECIFIC ACTIVITY (%) IN MEDIUM SMF+ / RELATIVE SPECIFIC ACTIVITY (%) IN MEDIUM SMF−: 1/IC50 of mutant divided by that of yRs-AFP2 x 100, 48 hour incubation, preliminary tests; for RELATIVE SPECIFIC ACTIVITY (%) IN MEDIUM SMF+: SMF with 1 mM CaCl2 and 50 mM KCl; for RELATIVE SPECIFIC ACTIVITY (%) IN MEDIUM SMF−: low ionic strength medium; for IC50 SMF+ / IC50 SMF−: 72 hours growth, triplicate; for IC50 SMF+: high salt medium (1 mM CaCl2, 50 mM KCl); for IC50 SMF− / effect of substitution on antifungal activity in SMF−, in words: low salt medium; for effect of substitution on antifungal activity in SMF+, in words / effect of substitution on antifungal activity in SMF−, in words: Table 2 tests; for effect of substitution on antifungal activity in SMF+, in words: high salt medium; for relative specific antifungal activity (1/IC50), FIG. 6, in words: medium SMF+, Rs-AFP2 set at 100
Method: For each isoform, two independent purifications were carried out and the antifungal activity was determined in duplicate using F culmorum as a test fungus in two different media: a low ionic strength medium called SMF-(Terras et al, 1992, J Biol Chem, 267:15301-15309) and the same medium supplemented with 1 mM CaCl2 and 50 mM KCl called SMF+. The presence of salts in the test medium, especially salts with divalent cations, reduces the specific activity of Rs-AFP2. Seed-purified as well as yeast-expressed wild type Rs-AFP2 served as a control in the assays.
The relative specific activity is expressed as the specific activity of the mutant divided by the specific activity of yRs-AFP2 and multiplied by 100. […] The specific activity was measured in medium SMF−and SMF+.
Deviations are given as standard error of the mean (sem) based on the triplicate experiments. In SMF−, the medium without added salts, most of the derivatives show no decrease or only a minor decrease in antifungal activity, while in SMF+, the medium with added salts, there is a significant decrease in antifungal activity for several Rs-AFP2 isoforms.

Row | Substance | RELATIVE SPECIFIC ACTIVITY (%) IN MEDIUM SMF+ [%] | RELATIVE SPECIFIC ACTIVITY (%) IN MEDIUM SMF− [%] | IC50 SMF+ | IC50 SMF− | antifungal activity compared with yRs-AFP2 in high salt (SMF+), in words (Table 1 tests) | antifungal activity compared with yRs-AFP2 in low salt (SMF−), in words (Table 1 tests) | effect of substitution on antifungal activity in SMF+, in words | effect of substitution on antifungal activity in SMF−, in words | relative specific antifungal activity (1/IC50), FIG. 6, in words | antifungal activity compared with yRs-AFP2, in words (Table 1 tests, SMF− and SMF+)
1 | yRs-AFP2/P7R: yeast-expressed Rs-AFP2 isoform, P7 replaced by arginine (QKLCQRRSGTWSGVCGNNNACKNQCIRLEKARHGSCNYVFPAHKCICYFPC; listed as Raphanus sativus) | 84 | 33 | 8.8 | 6.8 | – | – | – | – | – | –
2 | yRs-AFP2/W11S (QKLCQRPSGTSSGVCGNNNACKNQCIRLEKARHGSCNYVFPAHKCICYFPC; listed as Raphanus sativus) | – | – | >100 | 16.0 | – | – | – | – | – | –
3 | yRs-AFP2/A31W (QKLCQRPSGTWSGVCGNNNACKNQCIRLEKWRHGSCNYVFPAHKCICYFPC; listed as Raphanus sativus) | <5 | 15 | >100 | 30.0 | – | – | – | – | – | –
4 | yRs-AFP2/I26R (QKLCQRPSGTWSGVCGNNNACKNQCRRLEKARHGSCNYVFPAHKCICYFPC; listed as Raphanus sativus) | 82 | 76 | 9.6 | 7.2 | – | – | – | – | – | –
5 | yRs-AFP2/L28R (QKLCQRPSGTWSGVCGNNNACKNQCIRREKARHGSCNYVFPAHKCICYFPC; listed as Raphanus sativus) | – | 39 | >100 | 6.4 | – | – | – | – | – | –
6 | yRs-AFP2/Y38G (QKLCQRPSGTWSGVCGNNNACKNQCIRLEKARHGSCNGVFPAHKCICYFPC; listed as Raphanus sativus) | <4 | 30 | >200 | 42.0 | – | – | – | – | – | –
7 | yRs-AFP2/H33A (QKLCQRPSGTWSGVCGNNNACKNQCIRLEKARAGSCNYVFPAHKCICYFPC; listed as Raphanus sativus) | – | – | >100 | 32.0 | – | – | – | – | – | –
8 | yRs-AFP2/F49R (QKLCQRPSGTWSGVCGNNNACKNQCIRLEKARHGSCNYVFPAHKCICYRPC; listed as Raphanus sativus) | 22 | 18 | 23.0 | 22.0 | – | – | – | – | – | –
9 | yRs-AFP2/P7-: yeast-expressed Rs-AFP2 isoform with proline deletion at position 7 (QKLCQRSGTWSGVCGNNNACKNQCIRLEKARHGSCNYVFPAHKCICYFPC; listed as Raphanus sativus) | 17 | 8 | – | – | – | – | – | – | – | –
10 | yRs-AFP2/G16M (QKLCQRPSGTWSGVCMNNNACKNQCIRLEKARHGSCNYVFPAHKCICYFPC; listed as Raphanus sativus) | 114 | 151 | 5.0 | 2.2 | not so significantly different in high salt | increased activity in low salt | increased antifungal activity | little effect on the antifungal activity | enhanced activity | –
11 | yRs-AFP2/N37R (QKLCQRPSGTWSGVCGNNNACKNQCIRLEKARHGSCRYVFPAHKCICYFPC; listed as Raphanus sativus) | 80 | 100 | 7.0 | 2.8 | – | – | – | – | – | –
12 | yRs-AFP2/S12R (QKLCQRPSGTWRGVCGNNNACKNQCIRLEKARHGSCNYVFPAHKCICYFPC; listed as Raphanus sativus) | 31 | 67 | 20.0 | 3.5 | – | – | – | – | – | –
13 | yRs-AFP2/Q5M: yeast-expressed Rs-AFP2 isoform, position 5 glutamine to methionine (QKLCMRPSGTWSGVCGNNNACKNQCIRLEKARHGSCNYVFPAHKCICYFPC; listed as Raphanus sativus) | 100 | 100 | 5.4 | 4.1 | – | – | increased antifungal activity | little effect on the antifungal activity | enhanced activity | maintain their antifungal activity
14 | yRs-AFP2/T10G (QKLCQRPSGGWSGVCGNNNACKNQCIRLEKARHGSCNYVFPAHKCICYFPC; listed as Raphanus sativus) | <16 | 30 | >100 | 11.0 | – | – | – | – | – | –
15 | yRs-AFP2/K44Q (QKLCQRPSGTWSGVCGNNNACKNQCIRLEKARHGSCNYVFPAHQCICYFPC; listed as Raphanus sativus) | 114 | 100 | – | – | – | – | – | – | – | –
16 | yRs-AFP2/F40M (QKLCQRPSGTWSGVCGNNNACKNQCIRLEKARHGSCNYVMPAHKCICYFPC; listed as Raphanus sativus) | 23 | 30 | 54.0 | 16.0 | – | – | – | – | – | –
17 | yRs-AFP2/I46R (QKLCQRPSGTWSGVCGNNNACKNQCIRLEKARHGSCNYVFPAHKCRCYFPC; listed as Raphanus sativus) | – | 22 | >40 | 12.0 | – | – | – | – | – | –
18 | yRs-AFP2/A42R (QKLCQRPSGTWSGVCGNNNACKNQCIRLEKARHGSCNYVFPRHKCICYFPC; listed as Raphanus sativus) | 26 | 44 | 18.0 | 4.2 | – | – | – | – | – | –
